Measured values published in ChEMBL document CHEMBL5360570, “Discovery of pyrazolo[3,4-b]pyridine derivatives as novel and potent Mps1 inhibitors for the treatment of cancer” (Eur J Med Chem, 2023).

Legend:
[1] = target: Receptor-type tyrosine-protein kinase FLT3 (Homo sapiens) (UniProt P36888); experiment: Inhibition of FLT3 (unknown origin) assessed as residual activity at 1 uM relative to control
[2] = target: ALK-TFG (Homo sapiens) (UniProt Q9UM73+Q92734); experiment: Inhibition of ALK-TFG (Tex4Aex20) (unknown origin) assessed as residual activity at 1 uM relative to control; type: protein assay
ALK-TFG (Homo sapiens), sequence (Q92734 whole entry, looked up): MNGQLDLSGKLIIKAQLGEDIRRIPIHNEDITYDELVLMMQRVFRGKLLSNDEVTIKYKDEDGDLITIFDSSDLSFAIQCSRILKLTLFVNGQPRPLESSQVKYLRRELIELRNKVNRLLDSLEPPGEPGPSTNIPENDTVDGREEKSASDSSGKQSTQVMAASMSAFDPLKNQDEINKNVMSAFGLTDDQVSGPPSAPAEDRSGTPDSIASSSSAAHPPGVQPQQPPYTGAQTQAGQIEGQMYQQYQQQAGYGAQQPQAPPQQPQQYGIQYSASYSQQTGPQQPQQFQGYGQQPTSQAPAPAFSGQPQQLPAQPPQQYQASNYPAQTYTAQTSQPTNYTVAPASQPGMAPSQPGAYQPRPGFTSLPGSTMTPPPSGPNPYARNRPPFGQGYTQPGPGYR
ALK-TFG (Homo sapiens), sequence (Q9UM73 whole entry, looked up): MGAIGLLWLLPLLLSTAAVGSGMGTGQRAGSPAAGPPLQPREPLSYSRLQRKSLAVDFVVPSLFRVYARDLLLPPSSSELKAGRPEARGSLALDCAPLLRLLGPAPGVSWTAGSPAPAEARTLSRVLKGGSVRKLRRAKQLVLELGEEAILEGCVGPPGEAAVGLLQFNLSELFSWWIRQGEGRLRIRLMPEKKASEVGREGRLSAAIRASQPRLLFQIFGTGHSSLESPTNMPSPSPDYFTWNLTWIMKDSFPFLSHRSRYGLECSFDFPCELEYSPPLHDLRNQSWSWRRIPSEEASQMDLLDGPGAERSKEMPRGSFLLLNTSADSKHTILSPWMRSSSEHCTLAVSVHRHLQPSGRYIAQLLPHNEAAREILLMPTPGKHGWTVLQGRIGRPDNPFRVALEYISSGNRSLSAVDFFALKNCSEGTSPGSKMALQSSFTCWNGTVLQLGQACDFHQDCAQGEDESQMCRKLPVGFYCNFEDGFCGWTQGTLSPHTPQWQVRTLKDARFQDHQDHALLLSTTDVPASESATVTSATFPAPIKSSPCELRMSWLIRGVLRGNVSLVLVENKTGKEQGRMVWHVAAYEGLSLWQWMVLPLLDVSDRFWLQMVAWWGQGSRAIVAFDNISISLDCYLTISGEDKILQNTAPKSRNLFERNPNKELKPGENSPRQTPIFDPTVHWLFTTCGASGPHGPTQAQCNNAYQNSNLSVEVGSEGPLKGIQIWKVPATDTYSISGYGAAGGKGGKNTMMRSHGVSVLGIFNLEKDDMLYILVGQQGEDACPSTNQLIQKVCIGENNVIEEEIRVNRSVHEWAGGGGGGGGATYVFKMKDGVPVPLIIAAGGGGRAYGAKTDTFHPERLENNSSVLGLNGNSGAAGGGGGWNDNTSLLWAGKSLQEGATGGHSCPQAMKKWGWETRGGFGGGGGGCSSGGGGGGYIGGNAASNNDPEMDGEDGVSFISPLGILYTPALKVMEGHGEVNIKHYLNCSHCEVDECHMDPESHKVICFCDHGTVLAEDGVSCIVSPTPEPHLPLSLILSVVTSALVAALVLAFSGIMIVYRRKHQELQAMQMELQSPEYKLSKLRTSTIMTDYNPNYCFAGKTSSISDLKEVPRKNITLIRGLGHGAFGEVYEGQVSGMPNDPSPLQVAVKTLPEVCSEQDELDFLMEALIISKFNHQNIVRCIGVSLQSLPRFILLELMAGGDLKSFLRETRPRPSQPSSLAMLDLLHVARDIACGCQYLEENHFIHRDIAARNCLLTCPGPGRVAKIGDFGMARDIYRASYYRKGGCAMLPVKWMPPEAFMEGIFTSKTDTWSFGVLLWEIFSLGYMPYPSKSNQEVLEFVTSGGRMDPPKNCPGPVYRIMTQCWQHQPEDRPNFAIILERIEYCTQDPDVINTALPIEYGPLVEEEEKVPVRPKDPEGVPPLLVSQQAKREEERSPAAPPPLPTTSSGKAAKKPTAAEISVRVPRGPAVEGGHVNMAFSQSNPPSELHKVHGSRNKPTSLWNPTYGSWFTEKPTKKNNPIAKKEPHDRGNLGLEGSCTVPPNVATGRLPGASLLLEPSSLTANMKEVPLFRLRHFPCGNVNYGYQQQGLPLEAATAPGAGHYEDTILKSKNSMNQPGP

[3] = test system: ALK tyrosine kinase receptor (Homo sapiens), Q9UM73 [L1196M]; experiment: Inhibition of ALK L1196M mutant (unknown origin) assessed as residual activity at 1 uM relative to control
[4] = test system: ALK tyrosine kinase receptor (Homo sapiens), Q9UM73 [F1174L]; experiment: Inhibition of ALK F1174L mutant (unknown origin) assessed as residual activity at 1 uM relative to control
[5] = target: Non-receptor tyrosine-protein kinase TNK1 (Homo sapiens) (UniProt Q13470); experiment: Inhibition of TNK1 (unknown origin) assessed as residual activity at 1 uM relative to control
Non-receptor tyrosine-protein kinase TNK1 (Homo sapiens), sequence (Q13470 whole entry): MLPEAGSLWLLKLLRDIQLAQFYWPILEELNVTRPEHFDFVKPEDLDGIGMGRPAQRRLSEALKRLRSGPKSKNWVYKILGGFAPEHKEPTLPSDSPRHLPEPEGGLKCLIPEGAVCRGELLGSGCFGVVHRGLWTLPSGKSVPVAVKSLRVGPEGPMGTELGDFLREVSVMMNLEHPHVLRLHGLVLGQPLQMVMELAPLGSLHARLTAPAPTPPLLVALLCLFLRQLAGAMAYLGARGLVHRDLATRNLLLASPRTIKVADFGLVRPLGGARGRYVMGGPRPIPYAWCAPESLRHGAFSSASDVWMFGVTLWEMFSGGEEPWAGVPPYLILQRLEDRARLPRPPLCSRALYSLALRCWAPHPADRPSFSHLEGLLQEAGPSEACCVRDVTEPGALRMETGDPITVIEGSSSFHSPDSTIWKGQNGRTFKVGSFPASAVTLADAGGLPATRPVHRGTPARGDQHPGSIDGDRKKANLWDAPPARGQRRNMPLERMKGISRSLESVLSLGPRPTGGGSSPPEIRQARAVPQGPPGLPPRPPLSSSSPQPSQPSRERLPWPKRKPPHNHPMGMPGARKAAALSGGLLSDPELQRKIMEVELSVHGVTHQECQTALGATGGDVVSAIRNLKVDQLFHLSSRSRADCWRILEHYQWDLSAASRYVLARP

[6] = Metabolic stability in human liver microsome assessed as parent compound remaining preincubated for 10 mins followed by NADPH addition and measured at 15 mins by LC-MS/MS analysis; type: ADME; conditions: liver microsomes, time 25 min, read-out: Stability
[7] = Metabolic stability in human liver microsome assessed as intrinsic clearance preincubated for 10 mins followed by NADPH addition and measured upto 60 mins by LC-MS/MS analysis; type: ADME; conditions: liver microsomes, time < 70 min, read-out: CLH
[8] = target: Leucine-rich repeat serine/threonine-protein kinase 2 (Homo sapiens) (UniProt Q5S007); experiment: Inhibition of LRRK2 (unknown origin) assessed as residual activity at 1 uM relative to control
[9] = Oral bioavailability in Sprague-Dawley rat at 10 mg/kg measured upto 24 hrs by LC-MS/MS analysis; type: ADME, organism-based; conditions: in vivo
[10] = test system: ALK tyrosine kinase receptor (Homo sapiens), Q9UM73 [R1275Q]; experiment: Inhibition of ALK R1275Q mutant (unknown origin) assessed as residual activity at 1 uM relative to control
[11] = target: Serine/threonine-protein kinase MARK1 (Homo sapiens) (UniProt Q9P0L2); experiment: Inhibition of MARK1 (unknown origin) assessed as residual activity at 1 uM relative to control
[12] = MRT (0 to infinity) in Sprague-Dawley rat at 10 mg/kg, po measured upto 24 hrs by LC-MS/MS analysis; type: ADME, organism-based; conditions: in vivo
[13] = target: Activated CDC42 kinase 1 (Homo sapiens) (UniProt Q07912); experiment: Inhibition of ACK1 (unknown origin) assessed as residual activity at 1 uM relative to control
[14] = test system: ALK tyrosine kinase receptor (Homo sapiens), Q9UM73 [S1206R]; experiment: Inhibition of ALK S1206R mutant (unknown origin) assessed as residual activity at 1 uM relative to control
ALK tyrosine kinase receptor (Homo sapiens), Q9UM73 [S1206R], sequence (Q9UM73 whole entry S1206R): as the sequence (Q9UM73 whole entry, looked up) above, with S1206R counted along it

[15] = Volume of distribution at steady state in Sprague-Dawley rat at 2 mg/kg, iv measured upto 24 hrs by LC-MS/MS analysis; type: ADME, organism-based; conditions: in vivo, read-out: Vdss
[16] = target: Tyrosine-protein kinase FRK (Homo sapiens) (UniProt P42685); experiment: Inhibition of PTK5 (unknown origin) assessed as residual activity at 1 uM relative to control
[17] = Cmax in Sprague-Dawley rat at 10 mg/kg, po measured upto 24 hrs by LC-MS/MS analysis; type: ADME, organism-based; set-up: time < 24 hrs, dose 10 mg/kg, route po; conditions: in vivo
[18] = MRT (0 to t) in Sprague-Dawley rat at 2 mg/kg, iv measured upto 24 hrs by LC-MS/MS analysis; type: ADME, organism-based; conditions: in vivo
[19] = Half life in Sprague-Dawley rat at 2 mg/kg, iv measured upto 24 hrs by LC-MS/MS analysis; type: ADME, organism-based; conditions: in vivo
[20] = Metabolic stability in human liver microsome assessed as parent compound remaining preincubated for 10 mins followed by NADPH addition and measured at 30 mins by LC-MS/MS analysis; type: ADME; conditions: liver microsomes, time 40 min, read-out: Stability
[21] = target: LIM domain kinase 1 (Homo sapiens) (UniProt P53667); experiment: Inhibition of LIMK1 (unknown origin) assessed as residual activity at 1 uM relative to control
LIM domain kinase 1 (Homo sapiens), sequence (P53667 whole entry, looked up, the tested form may be a part): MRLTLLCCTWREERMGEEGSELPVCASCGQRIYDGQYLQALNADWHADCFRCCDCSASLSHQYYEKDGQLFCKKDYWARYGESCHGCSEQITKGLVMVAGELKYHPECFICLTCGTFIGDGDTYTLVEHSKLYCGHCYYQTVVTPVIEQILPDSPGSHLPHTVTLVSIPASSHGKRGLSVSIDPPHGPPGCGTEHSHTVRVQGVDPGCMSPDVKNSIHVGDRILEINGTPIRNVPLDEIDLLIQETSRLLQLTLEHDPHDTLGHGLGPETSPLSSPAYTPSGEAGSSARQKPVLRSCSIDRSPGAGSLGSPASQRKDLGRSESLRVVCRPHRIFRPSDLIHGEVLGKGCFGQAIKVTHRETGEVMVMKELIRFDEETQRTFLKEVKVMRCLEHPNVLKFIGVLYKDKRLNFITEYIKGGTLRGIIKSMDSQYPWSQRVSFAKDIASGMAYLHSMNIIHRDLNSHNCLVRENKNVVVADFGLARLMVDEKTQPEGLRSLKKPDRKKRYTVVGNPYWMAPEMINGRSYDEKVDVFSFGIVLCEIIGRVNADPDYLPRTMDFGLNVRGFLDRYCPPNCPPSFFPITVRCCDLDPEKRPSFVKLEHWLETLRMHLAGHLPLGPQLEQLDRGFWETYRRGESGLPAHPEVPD

[22] = AUC (0 to infinity) in Sprague-Dawley rat at 2 mg/kg, iv measured upto 24 hrs by LC-MS/MS analysis; type: ADME, organism-based; set-up: dose 2 mg/kg, time < 24 hrs, route iv; conditions: in vivo
[23] = target: Mitogen-activated protein kinase kinase kinase 9 (Homo sapiens) (UniProt P80192); experiment: Inhibition of MLK1 (unknown origin) assessed as residual activity at 1 uM relative to control
[24] = target: Tyrosine-protein kinase Fes/Fps (Homo sapiens) (UniProt P07332); experiment: Inhibition of FES (unknown origin) assessed as residual activity at 1 uM relative to control
Tyrosine-protein kinase Fes/Fps (Homo sapiens), sequence (P07332 whole entry): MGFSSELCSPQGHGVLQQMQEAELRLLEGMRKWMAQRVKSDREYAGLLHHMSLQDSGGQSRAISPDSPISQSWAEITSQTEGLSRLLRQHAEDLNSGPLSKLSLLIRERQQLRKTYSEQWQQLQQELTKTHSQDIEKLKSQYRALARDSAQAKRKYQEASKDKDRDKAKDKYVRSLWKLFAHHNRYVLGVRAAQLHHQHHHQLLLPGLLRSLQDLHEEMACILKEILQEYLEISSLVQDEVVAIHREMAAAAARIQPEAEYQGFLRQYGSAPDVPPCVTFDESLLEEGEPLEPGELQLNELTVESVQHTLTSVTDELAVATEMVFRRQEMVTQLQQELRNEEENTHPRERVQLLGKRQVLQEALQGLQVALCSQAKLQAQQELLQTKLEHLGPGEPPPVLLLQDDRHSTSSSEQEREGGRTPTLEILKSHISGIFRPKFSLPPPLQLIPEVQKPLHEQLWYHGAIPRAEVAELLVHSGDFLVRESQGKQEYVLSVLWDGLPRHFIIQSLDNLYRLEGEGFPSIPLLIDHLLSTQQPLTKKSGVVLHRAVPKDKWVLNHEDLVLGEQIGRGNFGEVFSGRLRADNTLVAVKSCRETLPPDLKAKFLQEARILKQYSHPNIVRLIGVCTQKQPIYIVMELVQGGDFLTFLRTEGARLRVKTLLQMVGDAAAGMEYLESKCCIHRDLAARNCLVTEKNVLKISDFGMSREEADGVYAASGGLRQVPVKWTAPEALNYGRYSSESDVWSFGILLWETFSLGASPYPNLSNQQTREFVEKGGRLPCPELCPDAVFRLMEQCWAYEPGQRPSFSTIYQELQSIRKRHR

[25] = test system: ALK tyrosine kinase receptor (Homo sapiens), Q9UM73 [G1269A]; experiment: Inhibition of ALK G1269A mutant (unknown origin) assessed as residual activity at 1 uM relative to control
ALK tyrosine kinase receptor (Homo sapiens), Q9UM73 [G1269A], sequence (Q9UM73 whole entry G1269A): as the sequence (Q9UM73 whole entry, looked up) above, with G1269A counted along it

[26] = test system: EML4-ALK (Homo sapiens), Q9UM73+Q9HC35 [F1174L]; experiment: Inhibition of ALK F1174L mutant (unknown origin)/EML4 (unknown origin) assessed as residual activity at 1 uM relative to control; type: protein assay
[27] = C0 in Sprague-Dawley rat at 2 mg/kg, iv measured upto 24 hrs by LC-MS/MS analysis; type: ADME, organism-based; conditions: in vivo
[28] = Half life in Sprague-Dawley rat at 10 mg/kg, po measured upto 24 hrs by LC-MS/MS analysis; type: ADME, organism-based; conditions: in vivo
[29] = target: Calcium/calmodulin-dependent protein kinase type II subunit alpha (Homo sapiens) (UniProt Q9UQM7); experiment: Inhibition of CaMK2alpha (unknown origin) assessed as residual activity at 1 uM relative to control
[30] = target: NUAK family SNF1-like kinase 2 (Homo sapiens) (UniProt Q9H093); experiment: Inhibition of SNARK (unknown origin) assessed as residual activity at 1 uM relative to control
[31] = test system: Fibroblast growth factor receptor 2 (Homo sapiens), P21802 [K526E]; experiment: Inhibition of FGFR2 K526E mutant (unknown origin) assessed as residual activity at 1 uM relative to control
Fibroblast growth factor receptor 2 (Homo sapiens), P21802 [K526E], sequence (P21802 whole entry K526E): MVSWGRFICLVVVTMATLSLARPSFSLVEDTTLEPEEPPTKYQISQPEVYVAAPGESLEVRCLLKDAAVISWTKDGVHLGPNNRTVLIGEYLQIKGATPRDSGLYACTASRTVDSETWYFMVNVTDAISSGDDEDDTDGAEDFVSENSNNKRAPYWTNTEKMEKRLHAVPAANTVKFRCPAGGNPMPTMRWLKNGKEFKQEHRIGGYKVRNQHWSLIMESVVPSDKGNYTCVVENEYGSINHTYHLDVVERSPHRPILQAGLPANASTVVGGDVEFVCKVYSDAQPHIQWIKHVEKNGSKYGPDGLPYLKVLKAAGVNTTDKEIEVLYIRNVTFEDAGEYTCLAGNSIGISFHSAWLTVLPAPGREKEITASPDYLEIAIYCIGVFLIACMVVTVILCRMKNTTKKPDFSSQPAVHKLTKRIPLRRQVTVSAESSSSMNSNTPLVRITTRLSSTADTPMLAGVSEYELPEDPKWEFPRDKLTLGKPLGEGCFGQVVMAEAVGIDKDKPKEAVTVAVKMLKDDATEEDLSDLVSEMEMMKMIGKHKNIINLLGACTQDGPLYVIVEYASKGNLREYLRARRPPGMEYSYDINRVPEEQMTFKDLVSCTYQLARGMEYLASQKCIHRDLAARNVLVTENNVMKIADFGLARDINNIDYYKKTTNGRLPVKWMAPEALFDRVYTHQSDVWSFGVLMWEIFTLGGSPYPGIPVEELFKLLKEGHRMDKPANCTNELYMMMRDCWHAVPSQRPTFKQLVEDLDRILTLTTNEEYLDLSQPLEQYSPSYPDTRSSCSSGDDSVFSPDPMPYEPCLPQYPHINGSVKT

[32] = target: ALK tyrosine kinase receptor (Homo sapiens) (UniProt Q9UM73); experiment: Inhibition of ALK (unknown origin) assessed as residual activity at 1 uM relative to control
[33] = Tmax in Sprague-Dawley rat at 2 mg/kg, iv measured upto 24 hrs by LC-MS/MS analysis; type: ADME, organism-based; conditions: in vivo
[34] = test system: ALK tyrosine kinase receptor (Homo sapiens), Q9UM73 [C1156Y]; experiment: Inhibition of ALK C1156Y mutant (unknown origin) assessed as residual activity at 1 uM relative to control
[35] = MRT (0 to t) in Sprague-Dawley rat at 10 mg/kg, po measured upto 24 hrs by LC-MS/MS analysis; type: ADME, organism-based; conditions: in vivo
[36] = target: ALK-KLC1 (Homo sapiens) (UniProt Q9UM73+Q07866); experiment: Inhibition of ALK-KLC1 (unknown origin) assessed as residual activity at 1 uM relative to control; type: protein assay

Activity [1]: < 10%
Activity [2]: < 10%
Activity [3]: < 10%
Activity [4]: < 10%
Activity [5]: < 10%
remaining at 0.25 h [6]: 64.6%
CLint scaled [7]: 33.5 mL/min/kg
Activity [8]: < 10%
bioavailability [9]: 3.95%
Activity [10]: < 10%
Activity [11]: < 10%
MRT inf [12]: 73.8 min
Activity [13]: < 10%
Activity [14]: < 10%
Vd [15]: 0.672 L/kg
Activity [16]: < 10%
Cmax [17]: 160 ng/mL
MRT last at 24 h [18]: 20.4 min
half-life [19]: 49.5 min
remaining at 0.5 h [20]: 48.7%
Activity [21]: < 10%
AUC(0-inf) [22]: 1050 ng·h/mL
Activity [23]: < 10%
Activity [24]: < 10%
Activity [25]: < 10%
Activity [26]: < 10%
C0 at 24 h [27]: 5240 ng/mL
half-life [28]: 63 min
Activity [29]: < 10%
Activity [30]: < 10%
Activity [31]: < 10%
Activity [32]: < 10%
Tmax [33]: 4.98 min
Activity [34]: < 10%
MRT last at 24 h [35]: 66.6 min
Activity [36]: < 10%
SMILES: CCc1cccc(CC)c1N1CCn2cc(-c3nc(Nc4ccc(N5CCN(C(C)=O)CC5)cc4OC)nc4[nH]ncc34)cc2C1=O
